In ChEMBL document CHEMBL3997765 (Medchemcomm, 2016):
Calls of active or inactive are those of the source. No cut-off for these calls is given here.

Legend:
[1] = biological target: T1, Mitogen-activated protein kinase 14 (Homo sapiens, UniProt Q16539); experiment: Inhibition of full length recombinant human GST-tagged p38alpha expressed in Escherichia coli at 10 uM using Ser/Thr04 peptide as substrate in presence of inactive MAPKAPK2 after 1 hr by FRET assay relative to control
[2] = biological target: T1, Mitogen-activated protein kinase 14; experiment: Inhibition of full length recombinant human GST-tagged p38alpha expressed in Escherichia coli by Z'-Lyte assay
[3] = biological target: T1, Mitogen-activated protein kinase 14; experiment: Inhibition of p38alpha phosphorylation in human U266 cells at 10 uM after 3 hrs by western blot analysis; assay type: cell-based
[4] = biological target: T1, Mitogen-activated protein kinase 14; experiment: Inhibition of p38alpha phosphorylation in human MM1S cells after 3 hrs by western blot analysis; assay type: cell-based

T1 sequence (Q16539 whole entry): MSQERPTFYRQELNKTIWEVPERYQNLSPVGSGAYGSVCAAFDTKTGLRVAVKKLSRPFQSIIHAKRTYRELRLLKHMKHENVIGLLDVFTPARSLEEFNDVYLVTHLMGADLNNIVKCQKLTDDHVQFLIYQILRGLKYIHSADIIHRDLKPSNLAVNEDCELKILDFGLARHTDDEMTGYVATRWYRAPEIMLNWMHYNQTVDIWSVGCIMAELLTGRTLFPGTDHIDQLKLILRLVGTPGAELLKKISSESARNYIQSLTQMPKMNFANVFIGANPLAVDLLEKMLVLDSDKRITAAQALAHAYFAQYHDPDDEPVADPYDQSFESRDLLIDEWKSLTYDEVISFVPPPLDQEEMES

Row | SMILES | inhibition [1] [%] | also measured
1 | O=[N+]([O-])c1ccccc1C1=Nc2c(Sc3ccccc3)ncnc2Sc2ccccc21 | 63 | –
2 | CCCC1=Nc2c(NCc3ccccc3)ncnc2Sc2ccccc21 | 5 | –
3 | [O-][S+](c1ccc(Cl)cc1)c1ncnc2c1N=C(c1ccccc1)c1cc(Cl)ccc1S2 (stereo unspecified) | 98 | IC50 [2]: 855 nM
4 | Clc1ccc(Sc2ncnc3c2N=C(c2ccccc2)c2cc(Cl)ccc2S3)cc1 | 3 | –
5 | CCCCNc1ncnc2c1N=C(c1ccccc1)c1cc(C)ccc1S2 | -4 | –
6 | Cc1ccc([S+]([O-])c2ncnc3c2N=C(c2cccnc2)c2cc(C)ccc2S3)cc1 (stereo unspecified) | 100 | –
7 | COc1ccc(Sc2ncnc3c2N=C(c2ccc(C)cc2)c2cc(OC)ccc2S3)cc1 | 30 | –
8 | Cc1ccc(Sc2ncnc3c2N=C(Cc2ccccc2)c2cc(C)ccc2S3)cc1 | 1 | –
9 | Cc1ccc2c(c1)C(Cc1ccccc1)=Nc1c(NCc3ccccc3)ncnc1S2 | 19 | –
10 | c1ccc(CC2=Nc3c(Sc4ccccc4)ncnc3Sc3ccccc32)cc1 | 9 | –
11 | Cc1ccc(C2=Nc3c(ncnc3[S+]([O-])c3ccc(C)cc3)Sc3ccc(C)cc32)cc1 (stereo unspecified) | 88 | –
12 | c1ccc(Sc2ncnc3c2N=C(c2ccccc2)c2ccccc2S3)cc1 | 18 | –
13 | Fc1ccc(C2=Nc3c(Sc4ccccc4)ncnc3Sc3ccccc32)cc1 | 7 | –
14 | Cc1ccc(Sc2ncnc3c2N=C(c2ccc(F)cc2)c2cc(C)ccc2S3)cc1 | 0 | –
15 | Cc1ccc2c(c1)C(c1ccc(F)cc1)=Nc1c(N)ncnc1S2 | 4 | –
16 | Cc1ccc(C2=Nc3c(ncnc3[S+]([O-])c3ccc(Cl)cc3)Sc3ccc(Cl)cc32)cc1 (stereo unspecified) | 99 | –
17 | Cc1ccc(Sc2ncnc3c2N=C(c2ccccc2)c2cc(C)ccc2S3)cc1 | 12 | –
18 | CCCC1=Nc2c(Sc3ccccc3)ncnc2Sc2ccccc21 | 11 | –

Row | SMILES | inhibition [1] [%] | also measured
19 | c1ccc(C2=Nc3c(ncnc3N3CCCC3)Sc3ccccc32)cc1 | -4 | –
20 | Clc1ccc(Sc2ncnc3c2N=C(Cc2ccccc2)c2cc(Cl)ccc2S3)cc1 | 0 | –
21 | Cc1ccc(C2=Nc3c(NCc4ccccc4)ncnc3Sc3ccc(Cl)cc32)cc1 | -2 | –
22 | CCCC1=Nc2c(ncnc2[S+]([O-])c2ccccc2)Sc2ccccc21 (stereo unspecified) | 73 | IC50 [2]: 969 nM
23 | Cc1ccc2c(c1)C(Cc1ccccc1)=Nc1c(NC3CCCCC3)ncnc1S2 | 29 | –
24 | Cc1ccc([S+]([O-])c2ncnc3c2N=C(c2ccccc2)c2cc(C)ccc2S3)cc1 (stereo unspecified) | 95 | –
25 | Cc1ccc2c(c1)C(c1cccnc1)=Nc1c(NCc3ccccc3)ncnc1S2 | 18 | –
26 | Cc1ccc(S(=O)(=O)c2ncnc3c2N=C(c2ccccc2)c2cc(C)ccc2[S+]3[O-])cc1 (stereo unspecified) | 100 | –
27 | Cc1ccc(C2=Nc3c(Sc4ccc(Cl)cc4)ncnc3Sc3ccc(Cl)cc32)cc1 | 4 | –
28 | Cc1ccc(C2=Nc3c(ncnc3S(=O)(=O)c3ccc(C)cc3)[S+]([O-])c3ccc(C)cc32)cc1 (stereo unspecified) | 100 | IC50 [2]: 42.7 nM; inhibition [3]: Active; inhibition [4]: Dose-dependent effect
29 | Cc1ccc(Sc2ncnc3c2N=C(c2cccnc2)c2cc(C)ccc2S3)cc1 | 4 | –
30 | COc1ccc(Sc2ncnc3c2N=C(Cc2ccccc2)c2cc(OC)ccc2S3)cc1 | 10 | –
31 | Cc1ccc(C2=Nc3c(NC4CCCCC4)ncnc3Sc3ccc(Cl)cc32)cc1 | 11 | –
32 | c1ccc(Sc2ncnc3c2N=C(c2cccnc2)c2ccccc2S3)cc1 | 98 | IC50 [2]: 1250 nM
33 | CCCC1=Nc2c(Sc3ccc(C)cc3)ncnc2Sc2ccc(C)cc21 | 16 | –
34 | Cc1ccc2c(c1)C(c1ccc(F)cc1)=Nc1c(NCCO)ncnc1S2 | -3 | –
35 | CCCCNc1ncnc2c1N=C(c1ccccc1)c1cc(Cl)ccc1S2 | -6 | –
